Literature values in patent publication US20070224216A1, “Methods and Compositions Related to Antiviral Therapy Using Algae and Cyanobacteria” (priority 2004, published 2007).

How the values were obtained:
[1] = test system: uninfected cells

Substance	toxicity to uninfected cells [1]	plasma concentrations after oral administration (rat, in vivo, po)	thrombosis in the rat jugular vein model (rats, oral)
calcium spirulan	No toxicity		
heparin [oral heparins]		less than 1%	reduction of thrombosis
